Experimental data taken from US9801901B2, “Alginate oligomers for use in overcoming multidrug resistance in bacteria” (priority 2009, dated 2017).
In brackets after ≈: the same amount, converted by molar mass. Like-named read-outs stand apart in the source and are kept apart here. Marks after values point to notes of the source that are not given here.

Tests used:
[1] = tested on: V5 AIM-1 E. coli; assay: MIC assay, CAMHB with alginate oligomer, no visible growth; assay type: cell-based; conditions: Escherichia coli, Table 4, V5 MDR E. coli
Excerpt: (§1) The study described in Example 1 was repeated with the following strains of bacteria and antibiotics as detailed in Tables 4, 5 and 6.

[2] = tested on: Acinetobacter baumannii MDR ACB from Libya (V4); assay: as above; assay type: cell-based; conditions: Acinetobacter baumannii, read-out: MIC
Excerpt: as §1
(§2) The study described in Example 1 was repeated with the following strains of Acinetobacter baumannii, antibiotics and M-block alginate oligomer in place of OligoG CF-5/20 as detailed in Table 7. The M-block oligomer is 100% M with a DPn of 15 to 18,

[3] = tested on: V10 (Egypt) Acinetobacter lwoffii; assay: as above; assay type: cell-based; conditions: Table 5, V10 MDR Acin. lwoff
[4] = tested on: V11 5702 (Wales) E. coli; assay: as above; assay type: cell-based; conditions: Table 5, V11 MDR E.coli
[5] = tested on: V22 6056 Acinetobacter; assay: as above; assay type: cell-based, Acinetobacter lwoffii; conditions: Table 5, V22 MDR Acin. lwoff
[6] = tested on: V23 1322 Burkholderia cepacia; assay: as above; assay type: cell-based
[7] = tested on: strains of Klebsiella pneumoniae displaying MDR phenotypes; assay: MIC-assay, Mueller-Hinton broth with G-block alginate, 384-well, OD600 (Table 10); assay type: cell-based; conditions: Klebsiella pneumoniae (K3, India, V8) MDR
Excerpt: Minimum inhibitory concentration (MICs) of different antibiotics for strains of Klebsiella pneumoniae displaying MDR phenotypes in the presence of varying concentrations of OligoCF-5/20 (0-10%). (MIC values are expressed in μg ml^−1).

[8] = tested on: Burkholderia cepacia (1322, V23); assay: MIC-assay, Mueller-Hinton broth with G-block alginate, 384-well, OD600; conditions: Table 8, G-block (OligoCF-5/20) 10%
[9] = tested on: Acinetobacter baumannii (Egypt, V9); assay: as above
[10] = tested on: Klebsiella pneumoniae KP05 506 from India (V3); assay: MIC assay, CAMHB with alginate oligomer, no visible growth; assay type: cell-based; conditions: for MIC: Klebsiella pneumoniae, Table 1, V3 KP05 506, read-out: MIC
[11] = tested on: V19 non MDR Acinetobacter baumannii; assay: MIC assay, CAMHB with M-block alginate oligomer, no visible growth; assay type: cell-based; conditions: Table 7, V19 non MDR Acin. baum
Excerpt: as §2

[12] = Acinetobacter lwoffii, OligoCF-5/20 0G, read-out: MIC
[13] = Escherichia coli, OligoCF-5/20 0G, read-out: MIC
[14] = Acinetobacter, OligoCF-5/20 0G, read-out: MIC
[15] = Burkholderia cepacia, Table 5, V23 MDR Burk cep, OligoCF-5/20 0G, read-out: MIC
[16] = Table 5, V23 MDR Burk cep, OligoCF-5/20 +10% G
[17] = Table 6, V23, Experiment 1 (18-03-10), OligoCF-5/20 +10% G
[18] = Table 6, V23, Experiment 3 (19-03-10), OligoCF-5/20 +10% G

CC[C@H]1OC(=O)[C@H](C)[C@@H](O[C@H]2C[C@@](C)(OC)[C@@H](O)[C@H](C)O2)[C@H](C)[C@@H](O[C@@H]2O[C@H](C)C[C@H](N(C)C)[C@H]2O)[C@](C)(O)C[C@@H](C)C(=O)[C@H](C)[C@@H](O)[C@]1(C)O [Erythromycin]
MIC ([1]; OligoCF-5/20 0G): 4 µg/mL (≈ 5.45 µM)
MIC ([1]; OligoCF-5/20 +2% G): 4 µg/mL (≈ 5.45 µM)
MIC ([1]; OligoCF-5/20 +6% G): ≤ 1 µg/mL
MIC ([1]; OligoCF-5/20 +10% G): ≤ 1 µg/mL
MIC ([2]; Table 4, V4 MDR (Libya), OligoCF-5/20 0G): 8 µg/mL (≈ 10.9 µM)
MIC ([2]; Table 4, V4 MDR (Libya), OligoCF-5/20 +2% G): 2 µg/mL (≈ 2.73 µM)
MIC ([2]; Table 4, V4 MDR (Libya), OligoCF-5/20 +6% G): ≤ 1 µg/mL
MIC ([2]; Table 4, V4 MDR (Libya), OligoCF-5/20 +10% G): ≤ 1 µg/mL
MIC [3, 12]: < 0.5 µg/mL
MIC ([3]; OligoCF-5/20 +2% G): <0.5 µg/mL
MIC ([3]; OligoCF-5/20 +6% G): <0.5 µg/mL
MIC ([3]; OligoCF-5/20 +10% G): <0.5 µg/mL
MIC [4, 13]: 512 µg/mL (≈ 698 µM)
MIC [5, 14]: < 0.5 µg/mL
MIC ([5]; OligoCF-5/20 +2% G): <0.5 µg/mL
MIC ([5]; OligoCF-5/20 +6% G): <0.5 µg/mL
MIC ([5]; OligoCF-5/20 +10% G): <0.5 µg/mL
MIC [6, 15]: 512 µg/mL (≈ 698 µM)
MIC ([6]; Burkholderia cepacia, Table 6, V23, Experiment 1 (18-03-10), OligoCF-5/20 0G, read-out: MIC): 512 µg/mL (≈ 698 µM)
MIC ([6]; Burkholderia cepacia, Table 6, V23, Experiment 3 (19-03-10), OligoCF-5/20 0G, read-out: MIC): > 512 µg/mL
MIC [6, 16]: 16^† μg/ml
MIC [6, 17]: 64^† μg/ml
MIC ([6]; Table 6, V23, Experiment 2 (18-03-10), OligoCF-5/20 +6% G): 64^† μg/ml
MIC ([6]; Table 6, V23, Experiment 2 (18-03-10), OligoCF-5/20 +10% G): 64^† μg/ml
MIC ([6]; Table 6, V23, Experiment 3 (19-03-10), OligoCF-5/20 +6% G): 64^† μg/ml
MIC [6, 18]: 16^† μg/ml
MIC ([7]; G-block (OligoCF-5/20) 0%): 128 µg/mL (≈ 174 µM)
MIC ([7]; G-block (OligoCF-5/20) 2%): 128 µg/mL (≈ 174 µM)
MIC ([7]; G-block (OligoCF-5/20) 6%): 128 µg/mL (≈ 174 µM)
MIC ([7]; G-block (OligoCF-5/20) 10%): 128 µg/mL (≈ 174 µM)
MIC [8]: 64 µg/mL (≈ 87.2 µM)
MIC ([9]; Table 9, G-block (OligoCF-5/20) 0%): 8 µg/mL (≈ 10.9 µM)
MIC ([9]; Table 9, G-block (OligoCF-5/20) 2%): 2 µg/mL (≈ 2.73 µM)
MIC ([9]; Table 9, G-block (OligoCF-5/20) 6%): 1 µg/mL (≈ 1.36 µM)
MIC ([9]; Table 9, G-block (OligoCF-5/20) 10%): < 1 µg/mL

C[C@@H](O)[C@H]1C(=O)N2C(C(=O)O)=C(S[C@@H]3CN[C@H](C(=O)N(C)C)C3)[C@H](C)[C@H]12 [Meropenem]
effectiveness in conjunction with alginate oligomers ([10]; Example 1, KP05 506): inconclusive
MIC ([10]; OligoCF-5/20 0G): 64 µg/mL (≈ 167 µM)
MIC ([10]; OligoCF-5/20 +2% G): 64 µg/mL (≈ 167 µM)
MIC ([2]; Table 1, V4 ACB (Libya), OligoCF-5/20 0G): < 4 µg/mL
MIC ([2]; Table 1, V4 ACB (Libya), OligoCF-5/20 +2% G): < 4 µg/mL
MIC ([2]; Table 1, V4 ACB (Libya), OligoCF-5/20 +6% G): < 4 µg/mL
MIC ([2]; Table 1, V4 ACB (Libya), OligoCF-5/20 +10% G): < 4 µg/mL
MIC ([2]; Table 7, V4 MDR Acin baum (Libya), M-block oligomer 0M): 16 µg/mL (≈ 41.7 µM)
MIC ([2]; Table 7, V4 MDR Acin baum (Libya), M-block oligomer +2% M): 32 µg/mL (≈ 83.4 µM)
MIC ([2]; Table 7, V4 MDR Acin baum (Libya), M-block oligomer +6% M): 16 µg/mL (≈ 41.7 µM)
MIC ([2]; Table 7, V4 MDR Acin baum (Libya), M-block oligomer +10% M): 8 µg/mL (≈ 20.9 µM)
MIC [3, 12]: 1 µg/mL (≈ 2.61 µM)
MIC ([3]; OligoCF-5/20 +2% G): 0.5^† μg/ml
MIC ([3]; OligoCF-5/20 +6% G): <0.25^† μg/ml
MIC ([3]; OligoCF-5/20 +10% G): <0.25^† μg/ml
MIC [4, 13]: < 0.25 µg/mL
MIC ([4]; OligoCF-5/20 +2% G): <0.25 µg/mL
MIC ([4]; OligoCF-5/20 +6% G): <0.25 µg/mL
MIC ([4]; OligoCF-5/20 +10% G): <0.25 µg/mL
MIC [5, 14]: 256 µg/mL (≈ 668 µM)
MIC ([5]; OligoCF-5/20 +10% G): 64^† μg/ml
MIC [6, 15]: 64 µg/mL (≈ 167 µM)
MIC ([6]; Table 5, V23 MDR Burk cep, OligoCF-5/20 +2% G): 64 µg/mL (≈ 167 µM)
MIC ([6]; Table 5, V23 MDR Burk cep, OligoCF-5/20 +6% G): 32^† μg/ml
MIC [6, 16]: 8^† μg/ml
MIC ([6]; Table 6, V23, Experiment 1 (18-03-10), OligoCF-5/20 +6% G): 64^† μg/ml
MIC [6, 17]: 64^† μg/ml
MIC ([6]; Table 6, V23, Experiment 3 (19-03-10), OligoCF-5/20 +2% G): 64^† μg/ml
MIC [6, 18]: 64^† μg/ml
MIC ([11]; M-block oligomer 0M): 8 µg/mL (≈ 20.9 µM)
MIC ([11]; M-block oligomer +2% M): 4 µg/mL (≈ 10.4 µM)
MIC ([11]; M-block oligomer +6% M): 2 µg/mL (≈ 5.22 µM)
MIC ([11]; M-block oligomer +10% M): 1 µg/mL (≈ 2.61 µM)
